This is an account of results in PubChem BioAssay (NCI).

Values joined by “and” are separate entries in the source; they are usually repeats but may differ in a detail not shown here. Equal entries are not always repeated.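 Dose response: 5 concentrations. Exposure: 48 h. Format: 96-well plates. Endpoint: linear interpolation; highest concentration if not reached. Here, GI50 denotes the concentration required for 50% inhibition of growth. At the TGI there is no net growth.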

Common to all, as to experiment: NCI anticancer screen, dose series, 48 h
The subject of test [1] is A549 NSCLC.
The test system of test [2] is SK-OV-3 ovarian.
Test [3] has as its system M14 melanoma.
In test [4] the test system is HCT-15 colon.
Test [5] has as its system OVCAR-5 ovarian.
The test system of test [6] is SF-295 CNS.
In test [7] the test system is MDA-MB-435.
For test [8], the system named is MALME-3M melanoma.
The subject of test [9] is SK-MEL-5 melanoma.
The subject of test [10] is UACC-257 melanoma.

Turning to `CSc1ccc2c(c1)C(N1CCN(C)CC1)Cc1ccccc1S2` (stereo unspecified), the GI50 in [1] was 2.17 µM; in [2] it was 2.01 µM; in [4], 2.83 µM; in [5], 1.95 µM; in test [6], 1.84 µM; in [7], 1.78 µM. Further, the GI50 in test [9] is 1.56 µM; in test [10], 1.54 µM. Also, the TGI in test [1] is 24.2 µM and 5.72 µM; in test [2], 27.3 µM and 4.25 µM; in test [3], 3.77 µM and 3.53 µM; in test [4], 16.4 µM and 7.41 µM; in test [5], 7.25 µM and 3.67 µM; in test [6], 15.2 µM and 3.7 µM. The TGI is 6.47 µM and 3.46 µM in [7]; 4.28 µM and 3.41 µM in test [8]; 3.53 µM and 2.9 µM in test [9]; 5.43 µM and 3.03 µM in test [10].
In the case of `COC(=O)CSSCc1ccc([N+](=O)[O-])cc1`, the TGI in [1] was 88.8 µM; in test [2], 46.8 µM; in [3], 46.4 µM; in test [4], 48 µM; in test [5] it was 35.6 µM; in [6], 43 µM. Also, the TGI in test [7] was 31.3 µM; in [8], 67.7 µM; in test [9], 50.9 µM; in test [10], 98.4 µM.
Consider `Cn1c(-c2c(N)n(CCCN3CCOCC3)c3nc(C#N)c(C#N)nc23)nc2ccccc21`, for which the GI50 is 22.5 µM in test [1]; 51.7 µM in test [2]; over 100 µM in test [3]; over 77.7 µM in test [5]; 19.6 µM in [6]; over 100 µM in test [7]. Further, the GI50 in [8] was 31.9 µM; in test [10], 25.7 µM. Moreover, the TGI in [1] is 46.3 µM; in test [2], over 100 µM; in test [3], over 100 µM; in test [4] it was over 53.4 µM; in [5], over 100 µM; in test [6], over 58.1 µM. In addition, the TGI in test [7] is over 100 µM; in test [8], over 83.7 µM; in [9], over 44.9 µM; in test [10], over 100 µM.
`C=CCOCn1cc(C)c(=O)[nH]c1=O`: the TGI in test [1], in [2], in test [3], in test [4], in test [6] and in test [7] was over 100 µM in each case. Further, the TGI in test [8], in test [9] and in test [10] was over 100 µM each time.
Regarding `N=c1c2c(=N)n3c(nc2nc2n1-c1ccccc1Sc1ccccc1-2)sc1cc(Cl)ccc13`, the GI50 in [1] is 2.25 µM; in [2], 4.42 µM; in [3], 4.11 µM; in [4], 2.14 µM; in [5], 7.55 µM; in [6], 1.82 µM. The GI50 in test [7] was 3.11 µM; in [9], 1.12 µM; in test [10], 2.59 µM. In addition, the TGI in [1] was over 100 µM; in [2] it was 37 µM; in test [3], over 100 µM; in test [4], over 100 µM; in test [5], 38.9 µM; in test [6], 9.52 µM. Moreover, the TGI in test [7] was over 100 µM; in test [9], 4 µM; in test [10], 54.8 µM.
`C=C1C(=O)OC2/C=C(/C)C(OC(C)=O)C/C=C(\C)C(OC(=O)C3(C)OC3C)C(O)C12` (stereo unspecified): the TGI in test [1], in test [2], in test [3], in test [4], in test [5] and in test [6] was over 100 µM throughout. The TGI in test [7], in test [9] and in test [10] was over 100 µM throughout.
For `COC(=O)C=Cc1ccc2nncnc2c1` (mixture of isomers), the TGI in [1] was 56.4 µM; in test [2], over 100 µM; in [3], 42.6 µM; in [4], over 100 µM; in test [5] it was over 100 µM; in [6] it was 64.3 µM. Also, the TGI in test [7] came out at 35.5 µM; in test [9], 20.8 µM; in test [10], 36.3 µM.
For the compound `COc1ccc(/C(C#N)=C2C=C/C(=N/O)c3ccccc3\2)cc1`, the GI50 in test [1] was 0.339 µM; in [2] it was 0.301 µM; in [3], 0.228 µM; in test [4], 0.168 µM; in test [5], 2.96 µM; in test [6], 0.687 µM. In addition, the results for the GI50 in [7], in test [9] and in test [10] were 0.0388 µM, 0.323 µM and 10.5 µM, respectively. For the same compound, the TGI in test [1] was 13.4 µM; in test [2], 3.4 µM; in test [3], 2.01 µM; in test [4], 4.52 µM; in [5] it was 16.5 µM; in [6], 13 µM. In addition, the TGI in [7] was determined as 0.179 µM; in test [9] it was 1.26 µM; in [10], 22.7 µM.
On to `CCc1nc(N)nc(N)c1-c1ccc(N2CCNCC2)cc1`, for which the TGI in test [1] was over 100 µM; in test [2] it was over 100 µM; in [3], over 83.9 µM; in [4], over 100 µM; in test [5], over 100 µM; in test [6] it was over 100 µM. Besides, the TGI was over 100 µM in test [7], 40.9 µM in [9] and over 86 µM in test [10].
In the case of `N#C/C(=C/NC(=S)c1ccncc1)C(N)=O`, the TGI in [1], in test [2], in test [3], in test [4], in [5] and in test [6] was over 100 µM in each case. Moreover, the TGI in test [7], in test [9] and in [10] was over 100 µM throughout.
For the compound `Cc1ccc(NC(=O)C(=O)CC(=O)c2sc(Nc3c(C)cccc3C)nc2C)cc1C`, the TGI in test [1], in test [2], in [3], in test [4], in test [5] and in test [6] was over 100 µM in each case. Further, the TGI in test [7], in test [9] and in test [10] was over 100 µM in each case.
